Assay results reported in patent US9212182B2, “Bicyclic sulfonamide compounds as sodium channel inhibitors” (AMGEN INC., priority 2013, dated 2015).
pIC50: −log10 of the molar value.

target: Nav 1.7 (Homo sapiens (Human), UniProt Q15858); assay: in-vitro Nav 1.7 PX (IC50); format: cell-based; conditions: in-vitro Nav 1.7 PX data
Sequence (Q15858 whole entry): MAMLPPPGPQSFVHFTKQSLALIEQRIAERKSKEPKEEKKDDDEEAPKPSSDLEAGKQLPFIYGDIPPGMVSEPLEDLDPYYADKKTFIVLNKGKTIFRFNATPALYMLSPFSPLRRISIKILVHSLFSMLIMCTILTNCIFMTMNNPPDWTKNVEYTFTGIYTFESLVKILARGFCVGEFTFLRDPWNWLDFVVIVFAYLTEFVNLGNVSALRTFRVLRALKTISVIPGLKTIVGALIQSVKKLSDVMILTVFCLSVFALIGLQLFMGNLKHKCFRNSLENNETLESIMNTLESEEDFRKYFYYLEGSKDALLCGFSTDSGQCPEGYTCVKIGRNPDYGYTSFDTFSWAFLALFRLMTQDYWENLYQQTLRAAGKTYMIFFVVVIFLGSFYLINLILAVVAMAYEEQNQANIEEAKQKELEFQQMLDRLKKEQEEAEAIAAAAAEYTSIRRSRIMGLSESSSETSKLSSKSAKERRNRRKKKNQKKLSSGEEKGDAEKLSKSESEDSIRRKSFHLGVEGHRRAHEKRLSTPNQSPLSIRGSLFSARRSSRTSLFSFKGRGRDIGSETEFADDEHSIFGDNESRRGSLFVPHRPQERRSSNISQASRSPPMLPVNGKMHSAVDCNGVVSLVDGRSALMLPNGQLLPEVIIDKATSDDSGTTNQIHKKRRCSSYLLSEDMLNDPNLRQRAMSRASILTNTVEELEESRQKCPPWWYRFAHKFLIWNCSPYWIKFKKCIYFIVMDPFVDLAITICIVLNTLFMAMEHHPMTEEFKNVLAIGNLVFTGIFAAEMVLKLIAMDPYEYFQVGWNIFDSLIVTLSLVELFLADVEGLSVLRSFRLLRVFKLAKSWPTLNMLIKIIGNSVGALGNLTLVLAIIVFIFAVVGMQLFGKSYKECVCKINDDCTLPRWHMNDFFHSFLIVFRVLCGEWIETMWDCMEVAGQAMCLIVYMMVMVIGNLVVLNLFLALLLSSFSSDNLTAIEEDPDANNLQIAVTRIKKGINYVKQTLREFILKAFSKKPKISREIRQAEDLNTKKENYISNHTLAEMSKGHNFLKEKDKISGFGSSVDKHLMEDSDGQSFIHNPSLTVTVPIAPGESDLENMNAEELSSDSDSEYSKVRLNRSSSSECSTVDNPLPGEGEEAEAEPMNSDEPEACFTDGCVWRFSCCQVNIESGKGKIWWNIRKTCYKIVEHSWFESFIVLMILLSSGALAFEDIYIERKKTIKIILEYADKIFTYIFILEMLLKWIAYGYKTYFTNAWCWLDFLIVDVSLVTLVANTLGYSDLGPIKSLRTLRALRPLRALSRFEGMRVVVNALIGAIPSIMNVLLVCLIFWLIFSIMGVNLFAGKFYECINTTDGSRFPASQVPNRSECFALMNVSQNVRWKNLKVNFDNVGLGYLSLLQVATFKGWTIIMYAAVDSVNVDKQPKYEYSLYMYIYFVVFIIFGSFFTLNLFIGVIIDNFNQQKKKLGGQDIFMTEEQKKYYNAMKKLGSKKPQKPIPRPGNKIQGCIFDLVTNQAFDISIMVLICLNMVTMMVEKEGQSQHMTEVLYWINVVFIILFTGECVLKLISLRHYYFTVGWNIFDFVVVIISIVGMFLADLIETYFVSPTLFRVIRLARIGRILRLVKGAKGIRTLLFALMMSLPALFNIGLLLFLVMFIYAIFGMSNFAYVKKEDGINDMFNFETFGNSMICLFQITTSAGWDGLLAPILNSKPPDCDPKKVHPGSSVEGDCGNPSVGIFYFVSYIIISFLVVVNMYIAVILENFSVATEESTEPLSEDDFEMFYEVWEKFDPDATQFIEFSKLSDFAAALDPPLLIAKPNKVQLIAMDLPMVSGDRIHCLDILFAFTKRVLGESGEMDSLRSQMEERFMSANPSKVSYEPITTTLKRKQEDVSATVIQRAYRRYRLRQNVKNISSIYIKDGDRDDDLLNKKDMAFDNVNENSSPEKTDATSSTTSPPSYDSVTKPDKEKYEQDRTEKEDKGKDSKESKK

Structure (SMILES)	pIC50
COc1cc(-c2ccc3c(c2)OCC3)ccc1-n1c(=O)ccc2cc(S(=O)(=O)Nc3ccon3)ccc21 [Example 809, 1-(4-(2,3-dihydro-1-benzofuran-6-yl)-2-methoxyphenyl)-N-3-isoxazolyl-2-oxo-1,2-dihydro-6-quinolinesulfonamide]	6.91
COc1cc(-c2ccc(C)c(C)c2)ccc1-n1c(=O)ccc2cc(S(=O)(=O)Nc3ccon3)ccc21 [Example 812, N-3-isoxazolyl-1-(3-methoxy-3′,4′-dimethyl-4-biphenylyl)-2-oxo-1,2-dihydro-6-quinolinesulfonamide]	7.14
COc1cc(-c2cc(Cl)cnc2OC)ccc1-n1c(=O)ccc2cc(S(=O)(=O)Nc3ccon3)ccc21 [Example 813, 1-(4-(5-chloro-2-methoxy-3-pyridinyl)-2-methoxyphenyl)-N-3-isoxazolyl-2-oxo-1,2-dihydro-6-quinolinesulfonamide]	7.00
COc1cc(-c2cccc(C(F)(F)F)c2)c(F)cc1-n1c(=O)ccc2cc(S(=O)(=O)[N-][n+]3ccccc3)ccc21 [Example 817, ((1-(2-fluoro-5-methoxy-3′-(trifluoromethyl)-4-biphenylyl)-2-oxo-1,2-dihydro-6-quinolinyl)sulfonyl)(1-pyridiniumyl)azanide]	5.34
COc1nc(OC2CCC2)c(Cl)cc1-n1c(=O)ccc2cc(S(=O)(=O)Nc3ccon3)ccc21 [Example 821, 1-(5-chloro-6-(cyclobutyloxy)-2-methoxy-3-pyridinyl)-N-3-isoxazolyl-2-oxo-1,2-dihydro-6-quinolinesulfonamide]	5.33
COc1nc(OCC2(C)CC2)c(Cl)cc1-n1c(=O)ccc2cc(S(=O)(=O)Nc3ccon3)ccc21 [Example 822, 1-(5-chloro-2-methoxy-6-((1-methylcyclopropyl)methoxy)-3-pyridinyl)-N-3-isoxazolyl-2-oxo-1,2-dihydro-6-quinolinesulfonamide]	6.34
COc1nc(OCC2CCCC2)c(Cl)cc1-n1c(=O)ccc2cc(S(=O)(=O)Nc3ccon3)ccc21 [Example 824, 1-(5-chloro-6-(cyclopentylmethoxy)-2-methoxy-3-pyridinyl)-N-3-isoxazolyl-2-oxo-1,2-dihydro-6-quinolinesulfonamide]	6.66
COc1nc(OC2CCCC2)c(Cl)cc1-n1c(=O)ccc2cc(S(=O)(=O)Nc3ccon3)ccc21 [Example 825, 1-(5-chloro-6-(cyclopentyloxy)-2-methoxy-3-pyridinyl)-N-3-isoxazolyl-2-oxo-1,2-dihydro-6-quinolinesulfonamide]	6.48
COc1cc(-c2cccc(OC(C)C)c2)ccc1-n1c(=O)ccc2cc(S(=O)(=O)Nc3ncco3)ccc21 [Example 826, 1-(3-methoxy-3′-(1-methylethoxy)-4-biphenylyl)-N-1,3-oxazol-2-yl-2-oxo-1,2-dihydro-6-quinolinesulfonamide]	6.85
COc1cc(-c2cccc(OC(C)C)c2)ccc1-n1c(=O)ccc2cc(S(=O)(=O)Nc3ncc(F)cn3)ccc21 [Example 827, N-(5-fluoro-2-pyrimidinyl)-1-(3-methoxy-3′-(1-methylethoxy)-4-biphenylyl)-2-oxo-1,2-dihydro-6-quinolinesulfonamide]	6.75
COc1cc(-c2cccc(OC(C)C)c2)ccc1-n1c(=O)ccc2cc(S(=O)(=O)Nc3ncccn3)ccc21 [Example 828, 1-(3-methoxy-3′-(1-methylethoxy)-4-biphenylyl)-2-oxo-N-2-pyrimidinyl-1,2-dihydro-6-quinolinesulfonamide]	6.21
COCCCOc1nc(OC)c(-n2c(=O)ccc3cc(S(=O)(=O)Nc4ccon4)ccc32)cc1Cl [Example 831, 1-(5-chloro-2-methoxy-6-(3-methoxypropoxy)-3-pyridinyl)-N-3-isoxazolyl-2-oxo-1,2-dihydro-6-quinolinesulfonamide]	5.42
COc1nc(OCC(F)(F)C(F)(F)F)c(Cl)cc1-n1c(=O)ccc2cc(S(=O)(=O)Nc3ccon3)ccc21 [Example 832, 1-(5-chloro-2-methoxy-6-(2,2,3,3,3-pentafluoropropoxy)-3-pyridinyl)-N-3-isoxazolyl-2-oxo-1,2-dihydro-6-quinolinesulfonamide]	6.79
COc1nc(OCC(F)(F)F)c(Cl)cc1-n1c(=O)ccc2cc(S(=O)(=O)Nc3ccon3)ccc21 [Example 833, 1-(5-chloro-2-methoxy-6-(2,2,2-trifluoroethoxy)-3-pyridinyl)-N-3-isoxazolyl-2-oxo-1,2-dihydro-6-quinolinesulfonamide]	6.25
COc1ccc(-c2ccc(F)c(C#N)c2)cc1-n1c(=O)ccc2cc(S(=O)(=O)Nc3ccon3)ccc21 [Example 834, 1-(3′-cyano-4′-fluoro-4-methoxy-3-biphenylyl)-N-3-isoxazolyl-2-oxo-1,2-dihydro-6-quinolinesulfonamide]	6.53
COc1ccc(-c2ccccc2F)cc1-n1c(=O)ccc2cc(S(=O)(=O)Nc3ccon3)ccc21 [Example 836, 1-(2′-fluoro-4-methoxy-3-biphenylyl)-N-3-isoxazolyl-2-oxo-1,2-dihydro-6-quinolinesulfonamide]	6.92
COc1ccc(-c2ccc(F)cc2F)cc1-n1c(=O)ccc2cc(S(=O)(=O)Nc3ccon3)ccc21 [Example 837, 1-(2′,4′-difluoro-4-methoxy-3-biphenylyl)-N-3-isoxazolyl-2-oxo-1,2-dihydro-6-quinolinesulfonamide]	6.75
COc1ccc(-c2ccc(F)c(F)c2)cc1-n1c(=O)ccc2cc(S(=O)(=O)Nc3ccon3)ccc21 [Example 839, 1-(3′,4′-difluoro-4-methoxy-3-biphenylyl)-N-3-isoxazolyl-2-oxo-1,2-dihydro-6-quinolinesulfonamide]	6.95
COc1ccc(-c2cc(F)ccc2F)cc1-n1c(=O)ccc2cc(S(=O)(=O)Nc3ccon3)ccc21 [Example 840, 1-(2′,5′-difluoro-4-methoxy-3-biphenylyl)-N-3-isoxazolyl-2-oxo-1,2-dihydro-6-quinolinesulfonamide]	6.79
COc1ccc(-c2ccc(F)cc2)cc1-n1c(=O)ccc2cc(S(=O)(=O)Nc3ccon3)ccc21 [Example 844, 1-(4′-fluoro-4-methoxy-3-biphenylyl)-N-3-isoxazolyl-2-oxo-1,2-dihydro-6-quinolinesulfonamide]	6.67

The next lines start with the values.

pIC50	Structure (SMILES)
7.82	CCc1cccc(-c2ccc(-n3c(=O)ccc4cc(S(=O)(=O)Nc5ccon5)ccc43)c(OC)c2)c1 [Example 810, 1-(3′-ethyl-3-methoxy-4-biphenylyl)-N-3-isoxazolyl-2-oxo-1,2-dihydro-6-quinolinesulfonamide]
7.18	COc1cc(OC)cc(-c2ccc(-n3c(=O)ccc4cc(S(=O)(=O)Nc5ccon5)ccc43)c(OC)c2)c1 [Example 811, N-3-isoxazolyl-2-oxo-1-(3,3′,5′-trimethoxy-4-biphenylyl)-1,2-dihydro-6-quinolinesulfonamide]
7.46	COc1cc(-c2cnc(OC)c(Cl)c2)ccc1-n1c(=O)ccc2cc(S(=O)(=O)Nc3ccon3)ccc21 [Example 814, 1-(4-(5-chloro-6-methoxy-3-pyridinyl)-2-methoxyphenyl)-N-3-isoxazolyl-2-oxo-1,2-dihydro-6-quinolinesulfonamide]
7.25	COc1cc(-c2cccc(Cl)c2OC)ccc1-n1c(=O)ccc2cc(S(=O)(=O)Nc3ccon3)ccc21 [Example 815, 1-(3′-chloro-2′,3-dimethoxy-4-biphenylyl)-N-3-isoxazolyl-2-oxo-1,2-dihydro-6-quinolinesulfonamide]
7.57	COc1cc(Cl)ccc1-c1ccc(-n2c(=O)ccc3cc(S(=O)(=O)Nc4ccon4)ccc32)c(OC)c1 [Example 816, 1-(4′-chloro-2′,3-dimethoxy-4-biphenylyl)-N-3-isoxazolyl-2-oxo-1,2-dihydro-6-quinolinesulfonamide]
7.42	COc1cc(-c2cccc(F)c2)ccc1-n1c(=O)ccc2cc(S(=O)(=O)Nc3ccon3)ccc21 [Example 818, 1-(3′-fluoro-3-methoxy-4-biphenylyl)-N-3-isoxazolyl-2-oxo-1,2-dihydro-6-quinolinesulfonamide]
7.74	COc1cc(-c2cccc(C(F)(F)F)c2)c(F)cc1-n1c(=O)ccc2cc(S(=O)(=O)Nc3cccnn3)ccc21 [Example 820, 1-(2-fluoro-5-methoxy-3′-(trifluoromethyl)-4-biphenylyl)-2-oxo-N-3-pyridazinyl-1,2-dihydro-6-quinolinesulfonamide]
7.60	COc1cc(-c2cccc(OC(C)C)c2)c(F)cc1-n1c(=O)ccc2cc(S(=O)(=O)Nc3ccon3)ccc21 [Example 823, 1-(2-fluoro-5-methoxy-3′-(1-methylethoxy)-4-biphenylyl)-N-3-isoxazolyl-2-oxo-1,2-dihydro-6-quinolinesulfonamide]
7.16	COc1cc(F)cc(-c2ccc(OC)c(-n3c(=O)ccc4cc(S(=O)(=O)Nc5ccon5)ccc43)c2)c1 [Example 838, 1-(3′-fluoro-4,5′-dimethoxy-3-biphenylyl)-N-3-isoxazolyl-2-oxo-1,2-dihydro-6-quinolinesulfonamide]
7.57	COc1ccc(-c2cccc(Cl)c2)cc1-n1c(=O)ccc2cc(S(=O)(=O)Nc3ccon3)ccc21 [Example 841, 1-(3′-chloro-4-methoxy-3-biphenylyl)-N-3-isoxazolyl-2-oxo-1,2-dihydro-6-quinolinesulfonamide]
7.14	COc1ccc(-c2ccccc2Cl)cc1-n1c(=O)ccc2cc(S(=O)(=O)Nc3ccon3)ccc21 [Example 842, 1-(2′-chloro-4-methoxy-3-biphenylyl)-N-3-isoxazolyl-2-oxo-1,2-dihydro-6-quinolinesulfonamide]
7.64	COc1ccc(-c2ccc(C(F)(F)F)cc2)cc1-n1c(=O)ccc2cc(S(=O)(=O)Nc3ccon3)ccc21 [Example 843, N-3-isoxazolyl-1-(4-methoxy-4′-(trifluoromethyl)-3-biphenylyl)-2-oxo-1,2-dihydro-6-quinolinesulfonamide]
7.24	COc1ccc(-c2ccc(Cl)cc2)cc1-n1c(=O)ccc2cc(S(=O)(=O)Nc3ccon3)ccc21 [Example 845, 1-(4′-chloro-4-methoxy-3-biphenylyl)-N-3-isoxazolyl-2-oxo-1,2-dihydro-6-quinolinesulfonamide]
